Measurements taken from PubChem BioAssay (NCI).
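The compound was tested at five concentrations on cells cultured in 96-well plates, with a 48-hour exposure period. At the GI50, growth is halved. TGI: total growth inhibition.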

Legend:
Test in all cases: NCI anticancer screen, dose series, 48 h
A549 NSCLC = test system: A549 NSCLC
ACHN renal = test system: ACHN renal
CCRF-CEM leukemia = test system: CCRF-CEM leukemia
COLO 205 colon = test system: COLO 205 colon
EKVX NSCLC = test system: EKVX NSCLC
HCC-2998 colon = test system: HCC-2998 colon
RPMI-8226 leukemia = test system: RPMI-8226 leukemia
U251 CNS = test system: U251 CNS
DU-145 prostate = test system: DU-145 prostate
T-47D breast = test system: T-47D breast

SMILES	TGI (A549 NSCLC) [µM]	TGI (ACHN renal) [µM]	TGI (CCRF-CEM leukemia) [µM]	TGI (COLO 205 colon) [µM]	TGI (EKVX NSCLC) [µM]	TGI (HCC-2998 colon) [µM]	TGI (RPMI-8226 leukemia) [µM]	TGI (U251 CNS) [µM]	GI50 (A549 NSCLC) [µM]	GI50 (ACHN renal) [µM]	GI50 (COLO 205 colon) [µM]	GI50 (DU-145 prostate) [µM]	TGI (DU-145 prostate) [µM]	GI50 (EKVX NSCLC) [µM]	GI50 (HCC-2998 colon) [µM]	GI50 (T-47D breast) [µM]	TGI (T-47D breast) [µM]	GI50 (U251 CNS) [µM]	GI50 (CCRF-CEM leukemia) [µM]	GI50 (RPMI-8226 leukemia) [µM]
COC(=O)C1=CCON(c2ccccc2)C1c1ccccc1 (stereo unspecified)	> 100	> 100	> 100	> 100	> 100	> 100	> 100	> 100												
O=c1nc(-c2ccccc2)c2c3c(cccn13)CCC2	> 100	> 100	> 100			> 100	> 100	> 100												
Fc1cccc(Cl)c1C1SCc2nc3ccccc3n21 (stereo unspecified)	> 100	> 100	> 100	47.3	> 100	> 100	60.2	89.7												
O=C1[C@@H](c2ccc(Cl)cc2)[C@H]2CC=C[C@H]2N1O	> 100		> 100	> 100	> 100	> 100	> 100													
O=C1c2ccccc2N2OC3(N4CCCC4)CCCC3C12c1ccccc1 (stereo unspecified)	> 100	> 100	> 100	> 100	> 100	> 100	> 100	> 100												
CC(C)c1cccc(C(C)C)c1NC(=O)C(=O)C(C(=O)c1ccccc1-c1ccccc1)C1OC(=O)c2ccccc21 (stereo unspecified)	> 100	> 100	68.5	81.5		32.5	> 100	25.4												
COc1cc(/C=C2\CN(C)CC3=C2Nc2nc(SC)[nH]c(=O)c2C3c2cc(OC)c(OC)c(OC)c2)cc(OC)c1OC (stereo unspecified)	13.7	3.55		4.73	66.4	3.63		4.14	3.26	1.93	2.11	3.6	12.1	8.44	1.91	3.69	22.6	1.76		
Cc1cc2c(cc1C)NC1=C(N2)OC(c2c[nH]c3ccc(COc4ccccc4)cc23)C1=O (stereo unspecified)	> 100	> 100		> 100	> 100	98.5	> 100	> 100					> 100				> 100			
COC(=O)c1nc(NN)[nH]c(=O)c1CCCCCc1c(C(=O)OC)[nH]c(NN)cc1=O	> 100	> 100	> 100	> 100	> 100	> 100	> 100	> 100												
CC(CO)[C@H]1OC(=O)C=C2[C@@]13O[C@@H]3[C@H]1OC(=O)[C@@]3(C)[C@H]4O[C@H]4C[C@@]2(C)[C@@H]13 (stereo partly specified)	> 39.8	4			18.3	8.58	8.75	> 100					> 27.1				> 46.1			
CCc1ccccc1NC(=O)C(=O)C(C(=O)c1ccc(OC)cc1)c1ccc(OC)cc1 (stereo unspecified)	> 100	> 100	> 100	> 100	> 100	> 100	> 100	> 100												
Cc1cc([N+](=O)[O-])c(C)c2c1[nH]c1ccc(/C(CCC3CCCC3)=N\N)cc12	34.2	28.8	44.9	33.1	32	30.9	62.2													
O=C(O)c1cc[c]([Hg][S]c2ncnc3nc[nH]c23)cc1	33.7	23.7	21.8	26.9	34.9		28.2	28.2	16.4	11.6	12.4	7.47	25.1	19.2		4.52	36.7	14.4	4.55	4.91
Clc1ccc([O][In]([O]c2ccc(Cl)cn2)[O]c2ccc(Cl)cn2)nc1	> 100		> 100	> 100	> 100	> 100		> 100	> 100		> 100			> 100	> 100			> 100	> 100	
COc1cc2nncc(Sc3cnnc4ccccc34)c2cc1OC	71.9	51.9	73.9	> 100	> 100	32.9	77.7	67.5												
CC1(C)C(=O)C(O)=CC2C1=CCC1C2(C)C(=O)CC2(C)C(C(C)(O)C(=O)CC(O)C(C)(C)O)C(O)CC12C (stereo unspecified)	> 74.1	16.2	12	> 100	38.8	14	19.1	7.58												
CCC1(Br)C(=O)NC(=O)N(C2CC(O)C(CO)O2)C1N=[N+]=[N-] (stereo unspecified)	> 100	> 100	> 100	> 100	> 100	> 100	> 100	> 100												
O=[N+]([O-])c1ccc(N=Nc2c(O)[nH]c3ccc([N+](=O)[O-])cc23)cc1	32.4	76.4	> 100	> 100	> 100		36.2	41.7												
CC(C)N(C(C)C)[PH+]1O[PH+](N(C(C)C)C(C)C)O[PH+](N(C(C)C)C(C)C)O[PH+](N(C(C)C)C(C)C)O[PH+](N(C(C)C)C(C)C)O1.[C-]#[O+].[C-]#[O+].[C-]#[O+].[C-]#[O+].[C-]#[O+].[C-]#[O+].[C-]#[O+].[Cr].[Cr] (stereo unspecified)	> 100	> 100	> 100	> 100	> 100	> 100	> 100	> 100	> 100	> 100	> 100			> 100	> 100			> 100	> 100	> 100
O=C(C(=O)c1ccc(Cc2ccc(C(=O)C(=O)c3ccccc3)cc2)cc1)c1ccccc1	> 100	> 100	> 100	> 100	> 100	> 100		> 100												
CSc1nc2c(c(O)c(C)c(=O)n2C2OC(COC(C)=O)C(OC(C)=O)C(OC(C)=O)C2OC(C)=O)c(=O)n1C (stereo unspecified)	> 100	> 100	> 100	> 100	> 100	> 100	> 100	> 100												
